Target: T1, hASIC1a (Homo sapiens, UniProt P78348)
T1 sequence (P78348 1-528): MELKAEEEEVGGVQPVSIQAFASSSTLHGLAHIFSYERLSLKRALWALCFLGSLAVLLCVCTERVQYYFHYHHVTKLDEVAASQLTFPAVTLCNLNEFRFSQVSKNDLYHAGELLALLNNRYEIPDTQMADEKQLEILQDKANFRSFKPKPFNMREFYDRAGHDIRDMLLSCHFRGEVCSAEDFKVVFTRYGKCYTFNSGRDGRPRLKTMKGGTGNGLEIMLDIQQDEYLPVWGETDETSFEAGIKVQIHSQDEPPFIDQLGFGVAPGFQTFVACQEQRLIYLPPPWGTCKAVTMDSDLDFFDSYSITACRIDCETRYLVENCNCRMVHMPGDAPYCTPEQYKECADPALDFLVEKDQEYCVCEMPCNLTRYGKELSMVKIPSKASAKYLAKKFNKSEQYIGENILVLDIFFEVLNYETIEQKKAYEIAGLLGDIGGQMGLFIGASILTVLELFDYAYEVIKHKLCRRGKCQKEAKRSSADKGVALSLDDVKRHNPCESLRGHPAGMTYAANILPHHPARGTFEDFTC
Assay: Whole-cell patch clamp of HEK293 cells expressing homomeric hASIC1a
Assay type: cell-based
Set-up: expressed in transfected cells; host or cells: HEK293
Conditions: 10 μM, HEK293, -60 mV, pH 7.4 to pH 6.5 for 5 sec, n=3
Procedure: HEK293 cells were transfected either with hASIC1a alone or co-transfected with hASIC1a and hASIC3. Acid-induced inward currents were recorded in the presence and absence of compound A (10 μM) using the whole-cell configuration of the patch-clamp method (voltage clamp mode).
All experiments are performed at room temperature (20-25° C.) in voltage clamp using conventional whole cell patch clamp methods (Neher, E., et al. (1978) Pfluegers Arch 375:219-228).
Coverslips with the cells are transferred to a 15 μl experimental chamber mounted on the stage of an inverted microscope (IMT-2, Olympus) supplied with Nomarski optics. […] The cells are held at a holding voltage of −60 mV and at the start of each experiment the current is continuously measured for 45 s to ensure a stable baseline. […] Current amplitudes are measured at the peak of the responses, and effect of the compounds is calculated as the amplitude at compound equilibrium divided by the amplitude of the current evoked by the pulse just before the compound was included. […]
FIGS. 4A and 4B show response to acidic saline in the absence or presence of 10 μM of Compound A recorded from HEK293 cells expressing either hASIC1a alone or HEK293 cells co-expressing hASIC1a and hASIC3 [voltage clamped at −60 mV, extracellular solution surrounding cells was changed rapidly from pH 7.4 to pH 6.5 for 5 sec] […]

COc1ccc(F)cc1-c1cc2c(c3c1CCN(C)C3)NC(=O)/C2=N/O [Compound A, 5-(5-fluoro-2-methoxyphenyl)-6,7,8,9-tetrahydro-3-(hydroxyimino)-8-methyl-1H-pyrrolo[3,2-h]isoquinoline-2(3H)-one]
effect on acid-induced inward current, hASIC1a alone: effectively modulates the activity
